The values that follow come from patent publication US20140243302A1, “BRIDGED BICYCLIC COMPOUNDS FOR THE TREATMENT OF BACTERIAL INFECTIONS” (priority 2011, published 2014).

Values after ≈ are worked out from the molar mass of the structure shown.

The assay concerns Staphylococcus aureus Smith. Nature of the assay: MIC assay, modified agar dilution (CLSI), S. aureus Smith. Type of assay: cell-based. The settings on record: Staphylococcus aureus, agar dilution, 35° C., 16-20 hr; lowest concentration that completely inhibited growth; read-out: S_aureus_Smith_WT_MIC. How it is done:
The potency of antibacterial agents was measured using the Minimal Inhibitory Concentration (MIC) assay. The assay measures the ability of test agents to inhibit the growth of bacteria on agar-containing medium.
The bacterial test strains used were exemplified by Staphylococcus aureus Smith, Enterococcus faecium A2373, Streptococcus pneumoniae IID554, and Escherichia coli ATCC 25922. All strains were maintained as frozen stocks held at −80° C. in skim milk. Other bacterial test strains are well known to those skilled in the art and can be used for testing.
Mueller Hinton Agar (MHA BBL; Becton Dickinson and Company, Sparks, Md.) was used as the medium. MHA was supplemented with 5% defibrinated horse blood (DHB; Nippon Biotest Laboratories inc.) to support the growth of S. pneumoniae and E. faecium.
MIC values were determined using a modified agar dilution procedure described by the Clinical and Laboratory Standards Institute (CLSI; Methods for Dilution Antimicrobial Susceptibility Tests for Bacteria That Grow Aerobically; Approved Standard—Eighth Edition. CLSI document M07-A8 [ISBN 1-56238-689-1]. Clinical and Laboratory Standards Institute, 940 West Valley Road, Suite 1400, Wayne, Pa. 19087-1898 USA, 2009).
Stock solutions (6.4 mgmL) of test compounds were prepared in 100% ultrapure dimethyl sulfoxide (DMSO; source) on the day of the assay. Subsequent serial dilutions were performed to generate solutions with concentrations ranging from 6.4 to 0.0002 mgmL in 100% DMSO.
Agar medium containing test compound was prepared by adding the dilutions of antimicrobial solution to molten MHA at a temperature of 45-50° C. The agar and antimicrobial solution were mixed thoroughly, poured into petri dishes, and allowed to solidify at room temperature. The final concentration of test compounds in the MHA medium ranged from 128 to 0.001 μg/mL with two-fold dilutions. MHA plates lacking antibacterial compound were used for growth controls.
Prior to susceptibility testing, the bacterial isolates were removed from frozen storage, thawed at room temperature, sub-cultured to MHA medium and incubated overnight at 35° C. S. pneumoniae and E. faecium were subcultured on MHA supplemented with 5% DHB at 35° C. with […]. Colonies from each plate were suspended in normal saline. This suspension was adjusted to the turbidity of a 0.5 McFarland standard, 1-2×10^8 colony forming units (CFU) per mL, and diluted 100-fold to 1-2×10^6 CFUmL.
Suspensions of bacterial cultures were applied to the surface of MHA plates containing test compound as well as to a growth control plate lacking test compound using an inoculum-replicating device with 4 mm pins. The replicating device applied 5 uL of the bacterial suspension such that each spot contained approx. 1×10^4 CFU. Plates were dried for about 40 min and incubated at 35° C. for 16-20 hr prior to scoring.
Turning to `CCOC(=O)c1cnc2ccc(OC)nc2c1CCC12CCC(NCc3ccc4c(n3)NC(=O)CO4)(CC1)CC2` [Example 2, Ethyl 6-Methoxy-4-(2-(4-((3-oxo-3,4-dihydro-2H-pyrido[3,2-b][1,4]oxazin-6-yl)methylamino)bicyclo[2.2.2]octan-1-yl)ethyl)-1,5-naphthyridine-3-carboxylate], the MIC was determined as 0.125 µg/mL (≈ 0.229 µM).

As to `COc1ccc2ncc(N)c(CCC34CCC(NCc5ccc6c(n5)NC(=O)CO6)(CC3)CC4)c2n1.Cl` [Example 3, 6-((4-(2-(3-Amino-6-methoxy-1,5-naphthyridin-4-yl)ethyl)bicyclo[2.2.2]octan-1-ylamino)methyl)-2H-pyrido[3,2-b][1,4]oxazin-3(4H)-one Hydrochloride], the MIC is 0.25 µg/mL.

On to `COc1ccc2ncc(F)c(CCC34CCC(NCc5ccc6c(n5)NC(=O)CO6)(CC3)CC4)c2n1.Cl` [Example 4, 6-((4-(2-(3-Fluoro-6-methoxy-1,5-naphthyridin-4-yl)ethyl)bicyclo[2.2.2]octan-1-ylamino)methyl)-2H-pyrido[3,2-b][1,4]oxazin-3(4H)-one Hydrochloride], for which the MIC amounted to 0.016 µg/mL. `COc1ccc2ncc(Cl)c(CCC34CCC(NCc5ccc6c(n5)NC(=O)CO6)(CC3)CC4)c2n1.Cl` [Example 5, 6-((4-(2-(3-Chloro-6-methoxy-1,5-naphthyridin-4-yl)ethyl)bicyclo[2.2.2]octan-1-ylamino)methyl)-2H-pyrido[3,2-b][1,4]oxazin-3(4H)-one Hydrochloride]: the MIC was found to be 0.031 µg/mL. As to `COc1ccc2ncc(Cl)c(C#CC34CCC(NCc5ccc6c(n5)NC(=O)CO6)(CC3)CC4)c2n1.Cl` [Example 6, 6-((4-((3-Chloro-6-methoxy-1,5-naphthyridin-4-yl)ethynyl)bicyclo[2.2.2]octan-1-ylamino)methyl)-2H-pyrido[3,2-b][1,4]oxazin-3(4H)-one Hydrochloride], the MIC was determined as 0.031 µg/mL. With `O=C1COc2ccc(CNC34CCC(/C=C\c5c(Cl)cnc6ccc(O)nc56)(CC3)CC4)nc2N1` [Example 7, (Z)-6-((4-(2-(3-Chloro-6-hydroxy-1,5-naphthyridin-4-yl)vinyl)bicyclo[2.2.2]octan-1-ylamino)methyl)-2H-pyrido[3,2-b][1,4]oxazin-3(4H)-one] the figure was 0.5 µg/mL (≈ 1.02 µM); with `COc1ccc2ncc(Cl)c(/C=C\C34CCC(NCc5ccc6c(n5)NC(=O)CO6)(CC3)CC4)c2n1` [Example 8, (Z)-6-((4-(2-(3-Chloro-6-methoxy-1,5-naphthyridin-4-yl)vinyl)bicyclo[2.2.2]octan-1-ylamino)methyl)-2H-pyrido[3,2-b][1,4]oxazin-3(4H)-one], 0.5 µg/mL (≈ 0.988 µM). With `O=C1COc2ccc(CNC34CCC(CCc5c(Cl)cnc6ccc(O)nc56)(CC3)CC4)nc2N1` [Example 9, 6-((4-(2-(3-Chloro-6-hydroxy-1,5-naphthyridin-4-yl)ethyl)bicyclo[2.2.2]octan-1-ylamino)methyl)-2H-pyrido[3,2-b][1,4]oxazin-3(4H)-one] the figure was 0.125 µg/mL (≈ 0.253 µM); with `COc1ccc2ncc(Cl)c(/C=C/C34CCC(NCc5ccc6c(n5)NC(=O)CO6)(CC3)CC4)c2n1.Cl` [Example 10, (E)-6-((4-(2-(3-Chloro-6-methoxy-1,5-naphthyridin-4-yl)vinyl)bicyclo[2.2.2]octan-1-ylamino)methyl)-2H-pyrido[3,2-b][1,4]oxazin-3(4H)-one Hydrochloride], 0.016 µg/mL; with `Cc1cccc2sc(C(=O)C34CCC(NCc5ccc6c(n5)NC(=O)CO6)(CC3)CC4)nc12` [Example 11, 6-((4-(4-Methylbenzo[d]thiazole-2-carbonyl)bicyclo[2.2.2]octan-1-ylamino)methyl)-2H-pyrido[3,2-b][1,4]oxazin-3(4H)-one], 2 µg/mL (≈ 4.32 µM). `COc1ccc2ncc(F)c(CCC34CCC(NCc5ccc6c(n5)NC(=O)CO6)(CC3)C4)c2n1` [Example 12, 6-((4-(2-(3-Fluoro-6-methoxy-1,5-naphthyridin-4-yl)ethyl)bicyclo[2.2.1]heptan-1-ylamino)methyl)-2H-pyrido[3,2-b][1,4]oxazin-3(4H)-one]: the MIC was 0.25 µg/mL (≈ 0.524 µM). With `COc1ccc2ncc(Cl)c(OCC34CCC(NCc5ccc6c(n5)NC(=O)CO6)(CC3)CC4)c2n1` [Example 15, 6-((4-((3-Chloro-6-methoxy-1,5-naphthyridin-4-yloxy)methyl)bicyclo[2.2.2]octan-1-ylamino)methyl)-2H-pyrido[3,2-b][1,4]oxazin-3(4H)-one] the figure was 0.031 µg/mL (≈ 0.0608 µM); with `COc1ccc2ncc(Cl)c(CCC34CCC(NCc5ccc6c(n5)NC(=O)CO6)(CC3)CO4)c2n1.Cl` [Example 16, 6-((1-(2-(3-Chloro-6-methoxy-1,5-naphthyridin-4-yl)ethyl)-2-oxabicyclo[2.2.2]octan-4-ylamino)methyl)-2H-pyrido[3,2-b][1,4]oxazin-3(4H)-one Hydrochloride], 0.016 µg/mL; with `COc1ccc2nccc(CCC34CCC(NCc5ccc6c(n5)NC(=O)CO6)(CC3)CO4)c2n1.Cl` [Example 17, 6-((1-(2-(6-Methoxy-1,5-naphthyridin-4-yl)ethyl)-2-oxabicyclo[2.2.2]octan-4-ylamino)methyl)-2H-pyrido[3,2-b][1,4]oxazin-3(4H)-one Hydrochloride], 0.031 µg/mL. With `COc1ccc2ncc(F)c(/C=C/C34CCC(NCc5ccc6c(n5)NC(=O)CO6)(CC3)CO4)c2n1` [Example 19, (E)-6-((1-(2-(3-Fluoro-6-methoxy-1,5-naphthyridin-4-yl)vinyl)-2-oxabicyclo[2.2.2]octan-4-ylamino)methyl)-2H-pyrido[3,2-b][1,4]oxazin-3(4H)-one] the figure was 0.008 µg/mL (≈ 0.0163 µM).

Take `COc1ccc2ncc(F)c(CC(OC)C34CCC(NCc5ccc6c(n5)NC(=O)CO6)(CC3)CO4)c2n1.Cl` (stereo not shown) [Example 22, 6-((1-(2-(3-Fluoro-6-methoxy-1,5-naphthyridin-4-yl)-1-methoxyethyl)-2-oxabicyclo[2.2.2]octan-4-ylamino)methyl)-2H-pyrido[3,2-b][1,4]oxazin-3(4H)-one Hydrochloride]: the MIC was 0.25 µg/mL.

In the case of `COc1ccc2ncc(F)c(CC(=O)C34CCC(NCc5ccc6c(n5)NC(=O)CO6)(CC3)CO4)c2n1` [Example 23, 6-((1-(2-(3-Fluoro-6-methoxy-1,5-naphthyridin-4-yl)acetyl)-2-oxabicyclo[2.2.2]octan-4-ylamino)methyl)-2H-pyrido[3,2-b][1,4]oxazin-3(4H)-one], the MIC came to 0.125 µg/mL (≈ 0.246 µM). With `COc1ccc2ncc(F)c(CCC34CCC(NCc5nc6ccccc6n(C)c5=O)(CC3)CO4)c2n1` [Example 24, 3-((1-(2-(3-Fluoro-6-methoxy-1,5-naphthyridin-4-yl)ethyl)-2-oxabicyclo[2.2.2]octan-4-ylamino)methyl)-1-methylquinoxalin-2(1H)-one] the figure was 4 µg/mL (≈ 7.94 µM); with `O=C1COc2ccc(CNC34CCC(CCc5c(F)cnc6ccc(N7CCOCC7)nc56)(CC3)OC4)nc2N1` [Example 28, 6-((1-(2-(3-Fluoro-6-morpholino-1,5-naphthyridin-4-yl)ethyl)-2-oxabicyclo[2.2.2]octan-4-ylamino)methyl)-2H-pyrido[3,2-b][1,4]oxazin-3(4H)-one], 0.5 µg/mL (≈ 0.911 µM); with `CN(C)c1ccc2ncc(F)c(CCC34CCC(NCc5ccc6c(n5)NC(=O)CO6)(CC3)CO4)c2n1` [Example 29, 6-((1-(2-(6-(Dimethylamino)-3-fluoro-1,5-naphthyridin-4-yl)ethyl)-2-oxabicyclo[2.2.2]octan-4-ylamino)methyl)-2H-pyrido[3,2-b][1,4]oxazin-3(4H)-one], 0.25 µg/mL (≈ 0.494 µM). With `Nc1ccc2ncc(F)c(CCC34CCC(NCc5ccc6c(n5)NC(=O)CO6)(CC3)CO4)c2n1` [Example 30, 6-((1-(2-(6-Amino-3-fluoro-1,5-naphthyridin-4-yl)ethyl)-2-oxabicyclo[2.2.2]octan-4-ylamino)methyl)-2H-pyrido[3,2-b][1,4]oxazin-3(4H)-one] the figure was 2 µg/mL (≈ 4.18 µM); with `N#Cc1ccc2ncc(F)c(CCC34CCC(NCc5ccc6c(n5)NC(=O)CO6)(CC3)CO4)c2n1` [Example 31, 7-Fluoro-8-(2-(4-((3-oxo-3,4-dihydro-2H-pyrido[3,2-b][1,4]oxazin-6-yl)methylamino)-2-oxabicyclo[2.2.2]octan-1-yl)ethyl)-1,5-naphthyridine-2-carbonitrile], 0.063 µg/mL (≈ 0.129 µM).
